Experimental findings from US11524968B2, “Heterocyclic compound as a protein kinase inhibitor” (HK inno.N Corporation, priority 2017, dated 2022) are described below.

The assay addresses JAK1 (Homo sapiens (Human), UniProt P23458). Briefly: Analysis of JAK1 activity inhibition ability (ADP-Glo Kinase Assay). To be noted: JAK1 enzyme, ADP-Glo luminescence, ATP 250 uM, IRS-itide substrate, 30° C. 40 minutes; read-out: IC50. The class given is biochemical. The method, boiled down:
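JAK1 enzyme, IRS-itide substrate (40 ng/mL) and 250 uM ATP, both as prepared in kinase buffer (Tris-HCl pH 7.5, MgCl2, BSA, DTT), reacted with compound 40 min at 30 °C. ADP formed was detected by ADP-Glo luminescence; IC50 is the concentration giving 50% inhibition versus control.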

Sequence of JAK1 (P23458 whole entry): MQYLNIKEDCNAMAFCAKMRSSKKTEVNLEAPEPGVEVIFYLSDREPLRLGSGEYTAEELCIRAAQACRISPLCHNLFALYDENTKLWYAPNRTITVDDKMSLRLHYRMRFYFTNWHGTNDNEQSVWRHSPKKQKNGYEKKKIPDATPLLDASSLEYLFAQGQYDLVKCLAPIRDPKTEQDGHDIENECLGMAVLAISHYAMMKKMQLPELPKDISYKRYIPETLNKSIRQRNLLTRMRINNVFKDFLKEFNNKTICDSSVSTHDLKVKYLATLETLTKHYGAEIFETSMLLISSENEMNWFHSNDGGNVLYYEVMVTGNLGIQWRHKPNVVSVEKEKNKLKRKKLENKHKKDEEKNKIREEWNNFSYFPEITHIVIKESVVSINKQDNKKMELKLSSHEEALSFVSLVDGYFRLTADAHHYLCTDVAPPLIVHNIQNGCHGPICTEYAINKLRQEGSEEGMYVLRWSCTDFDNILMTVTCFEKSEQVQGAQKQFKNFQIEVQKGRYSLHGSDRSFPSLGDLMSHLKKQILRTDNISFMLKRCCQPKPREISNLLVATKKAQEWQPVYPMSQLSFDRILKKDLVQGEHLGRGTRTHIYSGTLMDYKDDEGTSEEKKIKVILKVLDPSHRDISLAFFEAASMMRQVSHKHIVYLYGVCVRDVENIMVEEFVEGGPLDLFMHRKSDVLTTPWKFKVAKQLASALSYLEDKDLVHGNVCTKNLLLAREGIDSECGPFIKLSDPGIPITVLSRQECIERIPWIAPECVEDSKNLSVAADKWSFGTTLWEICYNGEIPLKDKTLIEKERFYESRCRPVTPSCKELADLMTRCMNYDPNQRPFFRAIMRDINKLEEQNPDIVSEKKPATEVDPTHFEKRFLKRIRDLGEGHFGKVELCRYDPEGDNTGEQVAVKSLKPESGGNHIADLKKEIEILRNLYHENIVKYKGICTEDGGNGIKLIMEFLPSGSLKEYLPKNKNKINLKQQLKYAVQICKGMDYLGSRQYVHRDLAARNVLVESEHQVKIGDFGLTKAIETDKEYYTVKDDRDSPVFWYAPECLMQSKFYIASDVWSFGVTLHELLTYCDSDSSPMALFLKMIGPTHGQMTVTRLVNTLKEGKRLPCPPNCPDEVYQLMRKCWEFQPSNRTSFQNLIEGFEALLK

Take `CCS(=O)(=O)Nc1ccc(-c2cc(NC(=O)C3CC3)nc3[nH]ccc23)c(C)c1C` [Example 131, N-(4-(4-(ethylsulfonamido)-2,3-dimethylphenyl)-1H-pyrrolo[2,3-b]pyridin-6-yl)cyclopropanecarboxamide]: the IC50 (usually the concentration needed to halve the response being measured) was 0.02 to 0.2 µM.
Under `CCCS(=O)(=O)Nc1ccc(-c2cc(NC(=O)C3CC3)nc3[nH]ccc23)c(C)c1C` [Example 132, N-(4-(2,3-dimethyl-4-(propylsulfonamido)phenyl)-1H-pyrrolo[2,3-b]pyridin-6-yl)cyclopropanecarboxamide] stands 0.02 to 0.2 µM.
`Cc1c(NS(=O)(=O)C2CC2)ccc(-c2cc(NC(=O)C3CC3)nc3[nH]ccc23)c1C` [Example 133, N-(4-(4-(cyclopropanesulfonamido)-2,3-dimethylphenyl)-1H-pyrrolo[2,3-b]pyridin-6-yl)cyclopropanecarboxamide]: the IC50 was < 0.02 µM.
Under `CCS(=O)(=O)Nc1ccc(-c2cc(NC(=O)C3CC3)[n+]([O-])c3[nH]ccc23)c(C)c1` [Example 134, 6-(cyclopropanecarboxamido)-4-(4-(ethylsulfonamido)-2-methylphenyl)-1H-pyrrolo[2,3-b]pyridine 7-oxide] stands 0.02 to 0.2 µM; under `CCc1cc(-c2cc(NC(=O)C3CC3)[n+]([O-])c3[nH]ccc23)ccc1NS(=O)(=O)CC` [Example 135, 6-(cyclopropanecarboxamido)-4-(3-ethyl-4-(ethylsulfonamido)phenyl)-1H-pyrrolo[2,3-b]pyridine 7-oxide], 0.02 to 0.2 µM.
Then `Cc1c(NS(=O)(=O)C2CC2)ccc(-c2cc(NC(=O)C3CC3)[n+]([O-])c3[nH]ccc23)c1C` [Example 136, 6-(cyclopropanecarboxamido)-4-(4-(cyclopropanesulfonamido)-2,3-dimethylphenyl)-1H-pyrrolo[2,3-b]pyridine 7-oxide], with 0.02 to 0.2 µM; and `CCc1cc(NS(=O)(=O)CC2(C#N)CC2)ccc1-c1cc(NC(=O)C2CC2)[n+]([O-])c2[nH]ccc12` [Example 137, 4-(4-(((1-cyanocyclopropyl)methyl)sulfonamido)-2-ethylphenyl)-6-(cyclopropanecarboxamido)-1H-pyrrolo[2,3-b]pyridine 7-oxide], with < 0.02 µM.
For the molecule `CCc1cc(-c2cc(NC(=O)C3CC3)nc3[nH]ccc23)cc(CC)c1NS(=O)(=O)CC1(C#N)CC1` [Example 138, N-(4-(4-(((1-cyanocyclopropyl)methyl)sulfonamido)-3,5-diethylphenyl)-1H-pyrrolo[2,3-b]pyridin-6-yl)cyclopropanecarboxamide], the IC50 is > 0.2 µM.
`CCc1cc(-c2cc(NC(=O)C3CC3)nc3[nH]ccc23)cc(CC)c1NS(=O)(=O)c1ccc(F)c(F)c1` [Example 139, N-(4-(4-((3,4-difluorophenyl)sulfonamido)-3,5-diethylphenyl)-1H-pyrrolo[2,3-b]pyridin-6-yl)cyclopropanecarboxamide]: the IC50 was > 0.2 µM.
As for `CCS(=O)(=O)Nc1ccc(-c2cc(NC(=O)C3CC3)nc3[nH]ccc23)c(C(=O)OC)c1` [Example 140, methyl 2-(6-(cyclopropanecarboxamido)-1H-pyrrolo[2,3-b]pyridin-4-yl)-5-(ethylsulfonamido)benzoate], the IC50 was > 0.2 µM.
Then `CCCS(=O)(=O)Nc1ccc(-c2cc(NC(=O)C3CC3)nc3[nH]ccc23)c(C(=O)OC)c1` [Example 141, methyl 2-(6-(cyclopropanecarboxamido)-1H-pyrrolo[2,3-b]pyridin-4-yl)-5-(propylsulfonamido)benzoate], with > 0.2 µM; and `COC(=O)c1cc(NS(=O)(=O)CC2(C#N)CC2)ccc1-c1cc(NC(=O)C2CC2)nc2[nH]ccc12` [Example 142, methyl 5-(((1-cyanocyclopropyl)methyl)sulfonamido)-2-(6-(cyclopropanecarboxamido)-1H-pyrrolo[2,3-b]pyridin-4-yl)benzoate], with > 0.2 µM; and `N#CC1(CS(=O)(=O)Nc2ccc(-c3cc(NC(=O)C4CC4)nc4[nH]ccc34)c(C(=O)O)c2)CC1` [Example 143], with > 0.2 µM.
Under `CCS(=O)(=O)Nc1ccc(-c2cc(NC(=O)C3CC3)nc3[nH]ccc23)c(C#N)c1` [Example 144, N-(4-(2-cyano-4-(ethylsulfonamido)phenyl)-1H-pyrrolo[2,3-b]pyridin-6-yl)cyclopropanecarboxamide] stands 0.02 to 0.2 µM; under `CCCS(=O)(=O)Nc1ccc(-c2cc(NC(=O)C3CC3)nc3[nH]ccc23)c(C#N)c1` [Example 145, N-(4-(2-cyano-4-(propylsulfonamido)phenyl)-1H-pyrrolo[2,3-b]pyridin-6-yl)cyclopropanecarboxamide], 0.02 to 0.2 µM.
Under `N#Cc1cc(NS(=O)(=O)c2ccc(F)c(F)c2)ccc1-c1cc(NC(=O)C2CC2)nc2[nH]ccc12` [Example 146, N-(4-(2-cyano-4-((3,4-difluorophenyl)sulfonamido)phenyl)-1H-pyrrolo[2,3-b]pyridin-6-yl)cyclopropanecarboxamide] stands > 0.2 µM.
`N#Cc1cc(NS(=O)(=O)CC2(C#N)CC2)ccc1-c1cc(NC(=O)C2CC2)nc2[nH]ccc12` [Example 147, N-(4-(2-cyano-4-(((1-cyanocyclopropyl)methyl)sulfonamido)phenyl)-1H-pyrrolo[2,3-b]pyridin-6-yl)cyclopropanecarboxamide]: the IC50 is > 0.2 µM.
For `CCS(=O)(=O)Nc1ccc(-c2cc(NC(=O)C3CC3)nc3[nH]ccc23)cn1` [Example 148, N-(4-(6-(ethylsulfonamido)pyridin-3-yl)-1H-pyrrolo[2,3-b]pyridin-6-yl)cyclopropanecarboxamide], the IC50 is 0.02 to 0.2 µM.
Under `CCS(=O)(=O)Nc1ccc(-c2cc(NC(=O)C3CC3)nc3[nH]ccc23)nc1F` [Example 149, N-(4-(5-(ethylsulfonamido)-6-fluoropyridin-2-yl)-1H-pyrrolo[2,3-b]pyridin-6-yl)cyclopropanecarboxamide] stands > 0.2 µM; under `CCCS(=O)(=O)Nc1ccc(-c2cc(NC(=O)C3CC3)nc3[nH]ccc23)nc1F` [Example 150, N-(4-(6-fluoro-5-(propylsulfonamido)pyridin-2-yl)-1H-pyrrolo[2,3-b]pyridin-6-yl)cyclopropanecarboxamide], > 0.2 µM; under `CCS(=O)(=O)NC1CC=C(c2cc(NC(=O)C3CC3)nc3[nH]ccc23)CC1` (centres unmarked) [Example 151, N-(4-(4-(ethylsulfonamido)cyclohex-1-en-1-yl)-1H-pyrrolo[2,3-b]pyridin-6-yl)cyclopropanecarboxamide], 0.02 to 0.2 µM.
Then `CCCS(=O)(=O)NC1CC=C(c2cc(NC(=O)C3CC3)nc3[nH]ccc23)CC1` (centres unmarked) [Example 152, N-(4-(4-(propylsulfonamido)cyclohex-1-en-1-yl)-1H-pyrrolo[2,3-b]pyridin-6-yl)cyclopropanecarboxamide], with 0.02 to 0.2 µM; and `O=C(Nc1cc(C2=CCC(NS(=O)(=O)C(F)(F)F)CC2)c2cc[nH]c2n1)C1CC1` (centres unmarked) [Example 153, N-(4-(4-((trifluoromethyl)sulfonamido)cyclohex-1-en-1-yl)-1H-pyrrolo[2,3-b]pyridin-6-yl)cyclopropanecarboxamide], with 0.02 to 0.2 µM; and `O=C(Nc1cc(C2=CCC(NS(=O)(=O)C3CC3)CC2)c2cc[nH]c2n1)C1CC1` (centres unmarked) [Example 154, N-(4-(4-(cyclopropanesulfonamido)cyclohex-1-en-1-yl)-1H-pyrrolo[2,3-b]pyridin-6-yl)cyclopropanecarboxamide], with 0.02 to 0.2 µM.
Then `N#CCCS(=O)(=O)NC1CC=C(c2cc(NC(=O)C3CC3)nc3[nH]ccc23)CC1` (centres unmarked) [Example 155, N-(4-(4-((2-cyanoethyl)sulfonamido)cyclohex-1-en-1-yl)-1H-pyrrolo[2,3-b]pyridin-6-yl)cyclopropanecarboxamide], with < 0.02 µM; and `N#CCC1(CS(=O)(=O)NC2CC=C(c3cc(NC(=O)C4CC4)nc4[nH]ccc34)CC2)CC1` (centres unmarked) [Example 156, N-(4-(4-(((1-(cyanomethyl)cyclopropyl)methyl)sulfonamido)cyclohex-1-en-1-yl)-1H-pyrrolo[2,3-b]pyridin-6-yl)cyclopropanecarboxamide], with < 0.02 µM.
As for `N#CC1(CS(=O)(=O)NC2CC=C(c3cc(NC(=O)C4CC4)nc4[nH]ccc34)CC2)CC1` (centres unmarked) [Example 157, N-(4-(4-(((1-cyanocyclopropyl)methyl)sulfonamido)cyclohex-1-en-1-yl)-1H-pyrrolo[2,3-b]pyridin-6-yl)cyclopropanecarboxamide], the IC50 was < 0.02 µM.
Under `N#CCCCS(=O)(=O)NC1CC=C(c2cc(NC(=O)C3CC3)nc3[nH]ccc23)CC1` (centres unmarked) [Example 158, N-(4-(4-((3-cyanopropyl)sulfonamido)cyclohex-1-en-1-yl)-1H-pyrrolo[2,3-b]pyridin-6-yl)cyclopropanecarboxamide] stands < 0.02 µM; under `O=C(Nc1cc(C2=CCC(NS(=O)(=O)CCCF)CC2)c2cc[nH]c2n1)C1CC1` (centres unmarked) [Example 159, N-(4-(4-((3-fluoropropyl)sulfonamido)cyclohex-1-en-1-yl)-1H-pyrrolo[2,3-b]pyridin-6-yl)cyclopropanecarboxamide], < 0.02 µM; under `C=CCS(=O)(=O)NC1CC=C(c2cc(NC(=O)C3CC3)nc3[nH]ccc23)CC1` (centres unmarked) [Example 160, N-(4-(4-(allylsulfonamido)cyclohex-1-en-1-yl)-1H-pyrrolo[2,3-b]pyridin-6-yl)cyclopropanecarboxamide], < 0.02 µM.
For the molecule `O=C(Nc1cc(C2=CCC(NS(=O)(=O)CC3CC3)CC2)c2cc[nH]c2n1)C1CC1` (centres unmarked) [Example 161, N-(4-(4-((cyclopropylmethyl)sulfonamido)cyclohex-1-en-1-yl)-1H-pyrrolo[2,3-b]pyridin-6-yl)cyclopropanecarboxamide], the IC50 was < 0.02 µM.
With `O=C(Nc1cc(C2=CCC(NS(=O)(=O)c3ccc(F)c(F)c3)CC2)c2cc[nH]c2n1)C1CC1` (centres unmarked) [Example 162, N-(4-(4-((3,4-difluorophenyl)sulfonamido)cyclohex-1-en-1-yl)-1H-pyrrolo[2,3-b]pyridin-6-yl)cyclopropanecarboxamide], the IC50 is < 0.02 µM.
